Like-named read-outs stand apart in the source and are kept apart here.
System: Northern house mosquitoes (Culex pipiens)
Assay: Long-term spatial repellency, static air repellency chamber, filter papers air-dried 5 hours
Type: in vivo
Conditions: Culex pipiens, 1 mL of 0.5% solution in acetone, air-dried 5 hours
In short: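 Adult female Culex pipiens, 5–7 days post-emergence, held at 27 °C, 80% RH and 16:8 light:dark, about 20 per replicate in a 9 × 60 cm glass static-air chamber. Filter paper treated with 0.5% compound in acetone and air-dried 5 h is placed at one end; acetone-only papers are the control. Percentage spatial repellency is scored from mosquito distribution at 15–150 min, 4 replicates.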

CC(C)=CCCC(C)CC(=O)OCC(C)O (stereo not drawn) [Compound 2144, 2-hydroxypropyl citronellate] showed a pest or weed control at 0.5 % (0.25 h, 15 min, read-out: Long-term Percentage repellency 15 min) of 12.5%, a pest or weed control at 0.5 % (1.5 h, 90 min, read-out: Long-term Percentage repellency 90 min) of 20% and a pest or weed control at 0.5 % (2.5 h, 150 min, read-out: Long-term Percentage repellency 150 min) of 35%.

From patent US11485701B2, “Insect repellent compounds and compositions, and methods thereof” (Iowa State University Research Foundation, Inc., priority 2016, dated 2022)
